This is an account of results in the supplement of paper PMC11208160.
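Also: IS621 recombinase and bridge RNA in Escherichia coli cells.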

The series in a line: recombinant barcode read abundance after kanamycin selection (control-corrected) (log10(CPM+1)); higher = more efficient recombination; sequences stand for … in AGTGCAGAGAAAATCGGCCAGTTTTCTCTGCCTGCAGTCCGCATGCCGT…AGATTTATGCAGCGGACTGCCTTTCTCCCAAAGTGATAAACCGGACAGTATCATGGACCGGTTTTCCCGGTAATCCGTATTTGCAAGGTTGGTTTCACT; site = the 11-nt target. The method in brief: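 For this pooled screen, each oligo contained a promoter, a target, a barcode and the J23119-driven first 104 bases of the bridge RNA. Gibson cloning placed it into a vector supplying the remaining 73 bp and a T7-inducible recombinase, and the pool was co-electroporated into E. coli with a donor plasmid. Recombination efficiency is derived from barcode counts per million at recombinant junctions after averaging and control correction, and is expressed on a log scale as log10(CPM+1), with selection on chloramphenicol/ampicillin/kanamycin plus 0.1 mM IPTG against a chloramphenicol/ampicillin LB agar control.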
Consider “GACACTGCTTGGGTTCTAACCTGTTGCCT (site GACACTGCTAG)”, for which the “recombinant barcode read abundance (log10)” value was found to be 0.403.

As to “GACACTGCTTGGGTTCTAACCTGTTGCCT (site GAGACTGCTAG)”, the “recombinant barcode read abundance (log10)” value was determined as 0.044.

Regarding “GACACTGCTTGGGTTCTAACCTGTTGCCT (site GATACTGCTAG)”, the “recombinant barcode read abundance (log10)” value is 0.233.

In the case of “GACAGGCCTTGGGTTCTAACCTGTTGCGT (site CTGCTAGCTCT)”, the “recombinant barcode read abundance (log10)” value came out at 0.278. Take “GACAGGCCTTGGGTTCTAACCTGTTGCGT (site GACAGGCCTAC)”: the “recombinant barcode read abundance (log10)” value turned out to be 1.31. For “GACATACCTTGGGTTCTAACCTGTTGCCT (site GACATACCTAG)”, the “recombinant barcode read abundance (log10)” value came out at 0.794. Take “GACATACCTTGGGTTCTAACCTGTTGCCT (site GACCTACCTAG)”: the “recombinant barcode read abundance (log10)” value came to 0.273. In the case of “GACATACCTTGGGTTCTAACCTGTTGCCT (site GACGTACCTAG)”, the “recombinant barcode read abundance (log10)” value amounted to 0.412. Regarding “GACATACCTTGGGTTCTAACCTGTTGCCT (site GACTTACCTAG)”, the “recombinant barcode read abundance (log10)” value was 0.251. Consider “GACATCGCTTGGGTTCTAACCTGTTGCCT (site GACATCACTAG)”, for which the “recombinant barcode read abundance (log10)” value came out at 0.0851. For the sequence “GACATCGCTTGGGTTCTAACCTGTTGCCT (site GACATCCCTAG)”, the “recombinant barcode read abundance (log10)” value is 0.0326.

On to “GACATCGCTTGGGTTCTAACCTGTTGCCT (site GACATCGCTAG)”, for which the “recombinant barcode read abundance (log10)” value was 1.64. Take “GACATCGCTTGGGTTCTAACCTGTTGCCT (site GACATCTCTAG)”: the “recombinant barcode read abundance (log10)” value amounted to 0.641. The figure for “GACCACTCTTGGGTTCTAACCTGTTGCCT (site AACCACTCTAG)” is 1.4; for “GACCACTCTTGGGTTCTAACCTGTTGCCT (site CACCACTCTAG)” it is 1.2. For the sequence “GACCACTCTTGGGTTCTAACCTGTTGCCT (site GACCACTCTAG)”, the “recombinant barcode read abundance (log10)” value was 2.39. On to “GACCACTCTTGGGTTCTAACCTGTTGCCT (site TACCACTCTAG)”, for which the “recombinant barcode read abundance (log10)” value was found to be 1.42. For “GACCAGCCTTGGGTTCTAACCTGTTGCAT (site GACCAGCCTAA)”, the “recombinant barcode read abundance (log10)” value is 0.106.

As for “GACCAGCCTTGGGTTCTAACCTGTTGCAT (site GACCAGCCTAC)”, the “recombinant barcode read abundance (log10)” value was found to be 0.74. As for “GACCAGCCTTGGGTTCTAACCTGTTGCAT (site GACCAGCCTAG)”, the “recombinant barcode read abundance (log10)” value is 0.466. For the sequence “GACCAGCCTTGGGTTCTAACCTGTTGCAT (site GACCAGCCTAT)”, the “recombinant barcode read abundance (log10)” value was determined as 1.82. In the case of “GACCAGCCTTGGGTTCTAACCTGTTGCGT (site GACCAGCCTAA)”, the “recombinant barcode read abundance (log10)” value was 0.104. With “GACCAGCCTTGGGTTCTAACCTGTTGCGT (site GACCAGCCTAC)”, the “recombinant barcode read abundance (log10)” value is 2.4. Consider “GACCAGCCTTGGGTTCTAACCTGTTGCGT (site GACCAGCCTAG)”, for which the “recombinant barcode read abundance (log10)” value worked out at 0.266.

Take “GACCAGCCTTGGGTTCTAACCTGTTGCGT (site GACCAGCCTAT)”: the “recombinant barcode read abundance (log10)” value worked out at 1.32. The figure for “GACCAGCCTTGGGTTCTAACCTGTTGCTT (site GACCAGCCTAA)” is 1.59; for “GACCAGCCTTGGGTTCTAACCTGTTGCTT (site GACCAGCCTAC)” it is 0.994. Turning to “GACCAGCCTTGGGTTCTAACCTGTTGCTT (site GACCAGCCTAG)”, the “recombinant barcode read abundance (log10)” value stood at 1.29. The figure for “GACCAGCCTTGGGTTCTAACCTGTTGCTT (site GACCAGCCTAT)” is 0.746; for “GACCCACCTTGGGTTCTAACCTGTTGCCT (site AACCCACCTAG)” it is 1.64; for “GACCCACCTTGGGTTCTAACCTGTTGCCT (site CACCCACCTAG)” it is 0.814. The figure for “GACCCACCTTGGGTTCTAACCTGTTGCCT (site GACCCACCTAG)” is 1.76; for “GACCCACCTTGGGTTCTAACCTGTTGCCT (site TACCCACCTAG)” it is 1.4. Regarding “GACCCATCTTGGGTTCTAACCTGTTGCCT (site GACACAACTAG)”, the “recombinant barcode read abundance (log10)” value was found to be 0.0316. For the sequence “GACCCATCTTGGGTTCTAACCTGTTGCCT (site GACCCATCTAG)”, the “recombinant barcode read abundance (log10)” value came to 0.683. With “GACCGCGCTTGGGTTCTAACCTGTTGCCT (site GACCGAGCTAG)”, the “recombinant barcode read abundance (log10)” value worked out at 0.672. Take “GACCGCGCTTGGGTTCTAACCTGTTGCCT (site GACCGCGCTAG)”: the “recombinant barcode read abundance (log10)” value was 1.05. On to “GACCGCGCTTGGGTTCTAACCTGTTGCCT (site GACCGGGCTAG)”, for which the “recombinant barcode read abundance (log10)” value came to 0.0432. For “GACCGCGCTTGGGTTCTAACCTGTTGCCT (site GACCGTGCTAG)”, the “recombinant barcode read abundance (log10)” value was 0.0542. Regarding “GACCGGACTTGGGTTCTAACCTGTTGCGT (site GACCGGACTAC)”, the “recombinant barcode read abundance (log10)” value came to 2.44. On to “GACCGGACTTGGGTTCTAACCTGTTGCGT (site GAGTGGACTAC)”, for which the “recombinant barcode read abundance (log10)” value stood at 0.0356.

For the sequence “GACGAAGCTTGGGTTCTAACCTGTTGCCT (site GACGAAGCTAG)”, the “recombinant barcode read abundance (log10)” value is 0.348. As for “GACGAAGCTTGGGTTCTAACCTGTTGCCT (site TCCGAAGCTAG)”, the “recombinant barcode read abundance (log10)” value is 0.0613. Consider “GACGATCCTTGGGTTCTAACCTGTTGCAT (site GACGATCCTAT)”, for which the “recombinant barcode read abundance (log10)” value came out at 0.547. The figure for “GACGATCCTTGGGTTCTAACCTGTTGCAT (site GGCGAACCTAT)” is 0.077; for “GACGATCCTTGGGTTCTAACCTGTTGCCT (site GACGATCCTAG)” it is 0.66; for “GACGATCCTTGGGTTCTAACCTGTTGCCT (site GCCGATCCTAG)” it is 0.0719. As to “GACGATCCTTGGGTTCTAACCTGTTGCCT (site GGCGATCCTAG)”, the “recombinant barcode read abundance (log10)” value turned out to be 0.255. Then “GACGATCCTTGGGTTCTAACCTGTTGCCT (site GTCGATCCTAG)”, with 0.0852; and “GACGCGGCTTGGGTTCTAACCTGTTGCCT (site GACGCGGCTAG)”, with 0.184.

As for “GACGCGGCTTGGGTTCTAACCTGTTGCCT (site TTGCGAACTCT)”, the “recombinant barcode read abundance (log10)” value is 0.059. Regarding “GACGGTCCTTGGGTTCTAACCTGTTGCGG (site GACGGTCCTCC)”, the “recombinant barcode read abundance (log10)” value is 2.15.

As to “GACGGTCCTTGGGTTCTAACCTGTTGCGG (site GATGGTCCTCC)”, the “recombinant barcode read abundance (log10)” value was found to be 0.418. Regarding “GACGTGTCTTGGGTTCTAACCTGTTGCCG (site GACGTGTCTCG)”, the “recombinant barcode read abundance (log10)” value was 0.408.

Turning to “GACGTGTCTTGGGTTCTAACCTGTTGCCG (site GGCGTGTCTCC)”, the “recombinant barcode read abundance (log10)” value came to 0.0409.

In the case of “GACGTGTCTTGGGTTCTAACCTGTTGCGT (site AGTCATACTTG)”, the “recombinant barcode read abundance (log10)” value is 0. Then “GACGTGTCTTGGGTTCTAACCTGTTGCGT (site GACGTGTCTAC)”, with 2.47; and “GACTCATCTTGGGTTCTAACCTGTTGCGG (site GACTCATCTCC)”, with 0.151. Then “GACTCATCTTGGGTTCTAACCTGTTGCGG (site GACTTGTCTCC)”, with 0.11.
